Where “and” joins values, the source holds several entries; their conditions need not be identical. Equal entries are not always repeated.
Assay: xn = mol fraction of the nth substance listed

OCCOCCOCCOCCOCCOCCO + O
viscosity [mPa·s], 100 kPa
Settings | 293.15 K | 298.15 K | 303.15 K | 308.15 K | 313.15 K | 318.15 K | 323.15 K
x2 = 0.086 | 84.1 | 63.85 | 49.38 | 39.16 | 31.47 | 25.71 | 21.3
x2 = 0.154 | 83.43 | 63.21 | 48.95 | 38.71 | 31.12 | 25.38 | 21.01
x2 = 0.191 | 79.58 | 61.16 | 47.41 | 37.44 | 30.09 | 24.56 | 20.43
x2 = 0.222 | 81.84 | 62.01 | 47.77 | 37.78 | 30.44 | 24.83 | 20.66

OCCCCO + NC=O
Settings | viscosity [mPa·s]
318.15 K, 101 kPa, x2 = 0.1052 | 18.95

CCCCCC[N+]1(C)CCOCC1.[Br-] + OCCOCCOCCO
100 kPa, x1 = 0.2005
Settings | viscosity [mPa·s]
293.15 K | 111.2
298.15 K | 83.7
303.15 K | 64.32
308.15 K | 50.24
313.15 K | 40.12
318.15 K | 32.53
323.15 K | 26.79

Cc1ncc(CO)c(CO)c1O.Cl + O
101 kPa
Settings | viscosity
293.15 K, x1 = 0.001798 | 1.047 mPa·s
293.15 K, x1 = 0.0018 | 1.047 mPa·s
298.15 K, x1 = 0.00081 | 0.9087 mPa·s
298.15 K, x1 = 0.000909 | 0.918 mPa·s
298.15 K, x1 = 0.001809 | 0.95 mPa·s
298.15 K, x1 = 0.002028 | 0.9328 mPa·s
298.15 K, x1 = 0.002489 | 0.9415 mPa·s
298.15 K, x1 = 0.002657 | 0.96 mPa·s
298.15 K, x1 = 0.003638 | 0.99 mPa·s
298.15 K, x1 = 0.003926 | 0.9708 mPa·s
298.15 K, x1 = 0.004487 | 1.007 mPa·s
298.15 K, x1 = 0.004756 | 0.9841 mPa·s
298.15 K, x1 = 0.005406 | 1.027 mPa·s
298.15 K, x1 = 0.006266 | 1.04 mPa·s
298.15 K, x1 = 0.006666 | 1.03 mPa·s
298.15 K, x1 = 0.007307 | 1.06 mPa·s
298.15 K, x1 = 0.00813 | 1.073 mPa·s
298.15 K, x1 = 0.008945 | 1.084 mPa·s
298.15 K, x1 = 0.009813 | 1.108 mPa·s
303.15 K, x1 = 0.0018 | 0.832 mPa·s
303.15 K, x1 = 0.00359 | 0.8603 mPa·s and 0.8604 mPa·s
308.15 K, x1 = 0.002028 | 0.7519 mPa·s
308.15 K, x1 = 0.002489 | 0.7601 mPa·s
308.15 K, x1 = 0.003926 | 0.7829 mPa·s
308.15 K, x1 = 0.004756 | 0.7924 mPa·s
308.15 K, x1 = 0.006666 | 0.828 mPa·s
313.15 K, x1 = 0.001798 | 0.6798 mPa·s and 0.6802 mPa·s and 0.68 mPa·s
313.15 K, x1 = 0.00359 | 0.7025 mPa·s
313.15 K, x1 = 0.007154 | 0.7543 mPa·s and 0.7545 mPa·s
318.15 K, x1 = 0.002028 | 0.6236 mPa·s
318.15 K, x1 = 0.002489 | 0.6303 mPa·s
318.15 K, x1 = 0.003926 | 0.649 mPa·s
318.15 K, x1 = 0.004756 | 0.6605 mPa·s
318.15 K, x1 = 0.006666 | 0.6863 mPa·s
323.15 K, x1 = 0.001798 | 0.5675 mPa·s
323.15 K, x1 = 0.0018 | 0.5673 mPa·s
323.15 K, x1 = 0.005375 | 0.6071 mPa·s and 0.6075 mPa·s and 0.6074 mPa·s

Cc1cc(C)cc(C)c1 + O=C1CCCCC1
viscosity [mPa·s], 101.33 kPa
Settings | x2 = 0.0996 | x2 = 0.1988 | x2 = 0.3039 | x2 = 0.4042 | x2 = 0.5038 | x2 = 0.602 | x2 = 0.7001 | x2 = 0.8014 | x2 = 0.8988
298.15 K | 0.702 | 0.75 | 0.81 | 0.882 | 0.965 | 1.067 | 1.193 | 1.375 | 1.607
303.15 K | 0.657 | 0.702 | 0.755 | 0.819 | 0.896 | 0.987 | 1.115 | 1.258 | 1.484
308.15 K | 0.619 | 0.659 | 0.706 | 0.765 | 0.835 | 0.915 | 1.027 | 1.168 | 1.373

Cc1cc(C)cc(C)c1 + CCC(C)=O
307.35 K, 101.33 kPa
Settings | viscosity [mPa·s]
x2 = 0.1256 | 0.549
x2 = 0.3266 | 0.5
x2 = 0.4175 | 0.479
x2 = 0.5581 | 0.443
x2 = 0.6213 | 0.428
x2 = 0.7133 | 0.409
x2 = 0.8019 | 0.389
x2 = 0.9035 | 0.368

[Cl-].[Cl-].[Cl-].[Cl-].[Sn+4] + c1ccccc1
viscosity, 101 kPa
Settings | 293.15 K | 313.15 K
x2 = 0.5 | – | 0.5435 mPa·s
x2 = 0.7 | 0.6136 mPa·s | 0.485 mPa·s and 0.4846 mPa·s

From the CheMixHub viscosity set
